Assay results taken from paper PMC9127750, “Structure-based design of CDC42 effector interaction inhibitors for the treatment of cancer” (Cell reports, 2022).

Tested on: WM3248 melanoma cells, 486 antibodies
Assay: Reverse phase protein arrays (RPPA);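 on RPPA AceCS1.R.V: ratio of treated to vehicle (0 µM) normalized linear protein signal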;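 on RPPA Akt1 pS473.R.V: ratio of treated to vehicle (0 µM) normalized linear protein signal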;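 on RPPA Akt1.R.V: ratio of treated to vehicle (0 µM) normalized linear protein signal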;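 on RPPA Ambra1 pS52.R.C: ratio of treated to vehicle (0 µM) normalized linear protein signal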;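 on RPPA Atg5.R.C: ratio of treated to vehicle (0 µM) normalized linear protein signal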;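 on RPPA Bim.R.V: ratio of treated to vehicle (0 µM) normalized linear protein signal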
Type: cell-based, Human
Conditions: 10 uM, Average
Excerpt: Pellets were snap frozen in liquid nitrogen and shipped to MD Anderson Cancer Center core RPPA facility for RPPA analysis (Table S5). Three biological replicates for each sample were generated.
Nomenclatures on the RPPA heatmaps: name_of_antibody.species_of_antibody.status_of_antibody. V - antibody validated; C - validation of antibody in progress; Q - antibody nonspecific; E – under evaluation; antibodies raised in M - mouse, G - goat, R - rabbit, or T - rat.

## CN(C)c1cccc(Nc2cc(-c3ccccc3)nc(C3CCNCC3)n2)c1 [ARN22089, N1,N1-dimethyl-N3-(6-phenyl-2-(piperidin-4-yl)pyrimidin-4-yl)benzene-1,3-diamine]
  RPPA ATM.R.V: 0.927
  RPPA ATM_pS1981.R.V: 1.057
  RPPA ATP5A.M.C: 0.974
  RPPA ATP5H.R.V: 1.098
  RPPA ATR.R.V: 1.026
  RPPA ATRX.R.C: 0.906
  RPPA ATR_pS428.R.C: 0.986
  RPPA AceCS1.R.V: 0.979
  RPPA Akt1.R.V: 0.907
  RPPA Akt1_pS473.R.V: 0.954
  RPPA Akt2.R.V: 0.941
  RPPA Akt2_pS474.R.C: 1.021
  RPPA Akt.R.V: 0.867
  RPPA Akt_pT308.R.V: 0.981
  RPPA Ambra1_pS52.R.C: 1.030
  RPPA Atg3.R.V: 0.962
  RPPA Atg4B.R.C: 0.898
  RPPA Atg5.R.C: 0.891
  RPPA Atg7.R.V: 0.851
  RPPA Aurora.A.R.C: 1.056
  RPPA Aurora.ABC_pT288_pT232_pT198.R.C: 1.162
  RPPA Axl.R.V: 0.783
  RPPA B7.H4.R.C: 0.993
  RPPA B.Raf.R.C: 0.898
  RPPA B.Raf_pS445.R.V: 0.944
  RPPA BAP1.M.V: 0.990
  RPPA BCL2A1.R.V: 1.335
  RPPA BMK1.Erk5_pT218_Y220.R.V: 0.987
  RPPA BRCA1.M.C: 1.014
  RPPA BRD4.R.V: 1.015
  RPPA Bax.R.V: 0.964
  RPPA Bcl2.R.C: 1.027
  RPPA Bcl.xL.R.V: 1.001
  RPPA BiP.GRP78.M.C: 1.017
  RPPA Bid.R.C: 0.983
  RPPA Bim.R.V: 0.937
  RPPA DNMT1.R.V: 1.022
  RPPA DRP1.R.V: 0.982
  RPPA DUSP4.R.V: 0.898
  RPPA DUSP6.R.C: 0.937
  RPPA Dvl3.R.V: 0.985
  RPPA E.Cadherin.R.V: 1.055
  RPPA EGFR.R.V: 0.930
  RPPA EGFR_pY1068.R.C: 1.016
  RPPA EGFR_pY1173.R.V: 0.991
  RPPA EMA.M.C: 1.130
  RPPA ENY2.M.C: 1.020
  RPPA ER.a.R.V: 0.940
  RPPA ER.a_pS118.R.V: 0.975
  RPPA ERCC5.R.C: 0.879
  RPPA EVI1.R.V: 1.063
  RPPA Elk1_pS383.R.C: 0.992
  RPPA Enolase.1.R.V: 0.999
  RPPA EphA2.R.V: 1.002
  RPPA EphA2_pS897.R.C: 1.008
  RPPA EphA2_pY588.R.C: 0.983
  RPPA Erk5.R.V: 0.909
  RPPA FABP5.R.C: 1.006
  RPPA FAK.R.C: 0.977
  RPPA FAK_pY397.R.V: 1.056
  RPPA FANCD2.R.V: 1.010
  RPPA FASN.R.V: 0.855
  RPPA FGF.basic.R.C: 0.941
  RPPA FN14.R.C: 1.032
  RPPA FOXM1.R.V: 1.022
  RPPA FOXO3.R.V: 1.030
  RPPA FRS2.alpha_pY196.R.V: 1.286
  RPPA FTO.R.V: 1.004
  RPPA Fibronectin.R.V: 0.843
  RPPA FoxO3a_pS318_S321.R.C: 1.028
  RPPA G6PD.R.V: 1.065
  RPPA GATA3.M.V: 1.016
  RPPA GATA6.R.V: 1.046
  RPPA GCLC.R.C: 0.968
  RPPA GCLM.R.V: 1.026
  RPPA GCN5L2.R.V: 0.929
  RPPA GGPS1.M.V: 1.006
  RPPA GRB2.R.V: 0.910
  RPPA GRB7.R.V: 0.970
  RPPA GSK.3B.R.C: 0.917
  RPPA Gab2.R.V: 0.984
  RPPA Gli1.R.C: 1.007
  RPPA Gli3.R.C: 0.971
  RPPA Glucocorticoid.Receptor.R.V: 1.081
  RPPA Glutamate.D1.2.R.V: 1.054
  RPPA Glutaminase.R.C: 0.935
  RPPA Granzyme.B.R.V: 0.974
  RPPA Grp75.R.C: 1.080
  RPPA Gys.R.V: 0.978
  RPPA Gys_pS641.R.V: 1.007
  RPPA H2AX_pS139.R.C: 0.966
  RPPA HER2.M.V: 1.022
  RPPA HER3.R.V: 0.985
  RPPA HER3_pY1289.R.C: 0.975
  RPPA HES1.R.V: 0.990
  RPPA Heregulin.R.V: 0.902
  RPPA X4E.BP1.R.V: 0.842
  RPPA X4E.BP1_pS65.R.V: 1.009
  RPPA X4E.BP1_pT37_T46.R.V: 1.014
  RPPA X14.3.3.zeta.R.V: 1.029
  RPPA X14.3.3εM.C: 1.000
  RPPA X53BP1.R.V: 0.942
  RPPA b.Actin.R.C: 1.019
  RPPA b.Catenin_pT41_S45.R.V: 1.005
  RPPA c.Abl.R.V: 1.077
  RPPA c.Abl_pY412.R.C: 0.962
  RPPA c.IAP2.R.C: 1.022
  RPPA eIF4E.R.V: 0.979
  RPPA eIF4E_pS209.R.V: 1.021
  RPPA eIF4G.R.C: 0.929
  RPPA level HLA.DQA1.R.V: 1.033
  RPPA level HLA.DR.DP.DQ.DX.R.C: 0.982
  RPPA level HMHA1.R.V: 0.975
  RPPA level HSP27.M.C: 1.029
  RPPA level HSP27_pS82.R.V: 0.988
  RPPA level HSP70.R.C: 0.942
  RPPA level Hexokinase.II.R.V: 0.989
  RPPA level Hif.1αR.C: 0.977
  RPPA level Histone.H3.R.V: 0.887
  RPPA level IDO.R.C: 1.004
  RPPA level IGF1R_pY1135_Y1136.R.V: 0.943
  RPPA level IGFBP2.R.V: 0.781
  RPPA level IGFBP3.M.V: 0.976
  RPPA level IGFRb.R.C: 0.929
  RPPA level IL.6.R.C: 0.956
  RPPA level IMP3.R.C: 1.001
  RPPA level IR.b.R.C: 1.049
  RPPA level IRF.1.R.V: 0.861
  RPPA level IRS1.R.V: 0.974
  RPPA level IRS2.R.C: 0.998
  RPPA level JAB1.M.C: 1.013
  RPPA level JNK2.R.V: 1.853
  RPPA level JNK_pT183_Y185.R.C: 0.981
  RPPA level Jagged1.R.V: 0.989
  RPPA level Jak2.R.V: 0.961
  RPPA level KAP1.R.V: 0.913
  RPPA level KEAP1.R.V: 0.975
  RPPA level LC3A.B.R.C: 0.954
  RPPA level LCN2.R.V: 1.252
  RPPA level LDHA.R.C: 1.005
  RPPA level LRP6_pS1490.R.V: 0.929
  RPPA level Lck.R.V: 0.974
  RPPA level MACC1.R.V: 1.049
  RPPA level MAPK_pT202_Y204.R.C: 0.956
  RPPA level MCT4.R.V: 0.820
  RPPA level MDM2_pS166.R.V: 1.004
  RPPA level MEK1.R.V: 1.435
  RPPA level MEK1_pS217_S221.R.V: 0.992
  RPPA level MEK2.R.V: 0.978
  RPPA level MERIT40.R.C: 0.950
  RPPA level MERIT40_pS29.R.V: 1.020
  RPPA level METTL3.R.V: 1.051
  RPPA level MIF.R.C: 1.063
  RPPA level MIG6.R.V: 1.022
  RPPA level MLH1.M.V: 0.972
  RPPA level MLKL.R.V: 0.916
  RPPA level MMP2.R.V: 0.984
  RPPA level MMP14.R.V: 1.009
  RPPA level MRAP.R.C: 1.048
  RPPA level MSH2.R.C: 1.016
  RPPA level MSH6.R.C: 0.997
  RPPA level MSI2.R.C: 0.997
